Source: doi:10.1101/2023.05.15.540887, “Comparative analysis of drug-like EP300/CREBBP acetyltransferase inhibitors” (bioRxiv, 2023)

Legend:
TK-10 = assay: NCI-60 growth inhibition (sulforhodamine B); type: cell-based; settings: Homo sapiens, TK-10, Renal Cancer, negative log of Molar value, LCONC -8, EXPID 2301NS84
[1] = tested on: MCF10A PANK4 KO+PANK4 WT cells; assay: Sulforhodamine B cell growth assay, MCF10A PANK4 KO+PANK4 WT; type: cell-based, human
UO-31 = assay: NCI-60 growth inhibition (sulforhodamine B); type: cell-based; settings: Homo sapiens, UO-31, Renal Cancer, negative log of Molar value, LCONC -8, EXPID 2301NS84
IGROV1 = assay: NCI-60 growth inhibition (sulforhodamine B); type: cell-based, human; settings: IGROV1 (Ovarian Cancer), negative log of Molar conc., LCONC -8
SK-MEL-28 = assay: NCI-60 growth inhibition (sulforhodamine B); type: cell-based, human; settings: SK-MEL-28 (Melanoma), negative log of Molar conc., LCONC -8
HCT-15 = assay: NCI-60 growth inhibition (sulforhodamine B); type: cell-based, human; settings: HCT-15 (Colon Cancer), negative log of Molar conc., LCONC -8
NCI-H23 = assay: NCI-60 growth inhibition (sulforhodamine B); type: cell-based, human; settings: NCI-H23 (Non-Small Cell Lung Cancer), negative log of Molar conc., LCONC -8
[2] = Homo sapiens, read-out: GI50 NLOGVALUE (converted)
[3] = Homo sapiens, read-out: LC50 NLOGVALUE
[4] = Homo sapiens, read-out: IC50 NLOGVALUE (converted)

Question: How did the GI50 (TK-10; read-out: GI50 NLOGVALUE (converted)) turn out when C[C@H](CN[C@@H](C(=O)Nc1ccc(-c2cnn(C)c2)cn1)c1ccccc1)c1ccc(C#N)cc1 [CPI-1612] was run?
Answer: Its GI50 is 132 nM.

Question: What about the IC50 (TK-10; read-out: IC50 NLOGVALUE) of the same compound?
Answer: The IC50 was > 100000 nM.

Question: What about the CC50 (TK-10; read-out: LC50 NLOGVALUE) of the same compound?
Answer: The CC50 was > 100000 nM.

Question: And the IC50 ([1]; Homo sapiens, MCF-10A KO+PANK4 WT, 72 h)?
Answer: Its IC50 is 8.9 nM.

Question: What about the “growth inhibition activity at 1 μM” value ([1]; PANK4 KO+WT cells, 1 μM) of the same compound?
Answer: Its value is “remains active”.

Question: And the GI50 (UO-31; read-out: GI50 NLOGVALUE)?
Answer: Its GI50 is < 10 nM.

Question: What about the IC50 (UO-31; read-out: IC50 NLOGVALUE (converted)) of the same compound?
Answer: Its IC50 is 28.2 nM.

Question: What about the CC50 (UO-31; read-out: LC50 NLOGVALUE) of the same compound?
Answer: Its CC50 is > 100000 nM.

Question: What about the GI50 (IGROV1; Homo sapiens, IGROV-1, read-out: GI50 NLOGVALUE (converted)) of the same compound?
Answer: The GI50 was 75.9 nM.

Question: What about the IC50 (IGROV1; Homo sapiens, IGROV-1, read-out: IC50 NLOGVALUE (converted)) of the same compound?
Answer: The IC50 was 57500 nM.

Question: And the CC50 (IGROV1; Homo sapiens, IGROV-1, read-out: LC50 NLOGVALUE)?
Answer: The CC50 was > 100000 nM.

Question: What about the “TGI NLOGVALUE” (IGROV1) of the same compound?
Answer: Its value is 4.

Question: And the GI50 (SK-MEL-28; [2])?
Answer: The GI50 was 14100 nM.

Question: What about the IC50 (SK-MEL-28; Homo sapiens, read-out: IC50 NLOGVALUE) of the same compound?
Answer: Its IC50 is > 100000 nM.

Question: And the CC50 (SK-MEL-28; [3])?
Answer: The CC50 was > 100000 nM.

Question: What about the “TGI NLOGVALUE” (SK-MEL-28) of the same compound?
Answer: Its value is 4.

Question: And the “TGI NLOGVALUE” (HCT-15)?
Answer: The value was 4.

Question: And the GI50 (HCT-15; [2])?
Answer: The GI50 was 16.2 nM.

Question: What about the IC50 (HCT-15; [4]) of the same compound?
Answer: Its IC50 is 53.7 nM.

Question: And the CC50 (HCT-15; [3])?
Answer: Its CC50 is > 100000 nM.

Question: What about the GI50 (NCI-H23; [2]) of the same compound?
Answer: Its GI50 is 33.1 nM.

Question: What about the IC50 (NCI-H23; [4]) of the same compound?
Answer: The IC50 was 851 nM.

Question: And the CC50 (NCI-H23; [3])?
Answer: The CC50 was > 100000 nM.

Question: What about the “TGI NLOGVALUE” (NCI-H23) of the same compound?
Answer: The value was 4.
